The subject of this experiment is A. baumannii ATCC 19,606. Description: microbe, parasite or virus in culture. The note with it: 20 serial 24-h passages at half-MIC, MHB. The method, then: A. baumannii ATCC 19,606 was adjusted to approximately 10^6 CFU/ml in MHB. […] After 24 h incubation, bacterial suspensions of the wells at half-MIC concentration of tested agent were taken and washed 2 times with MHB to prepare the next initial-passage of bacteria. Twenty repeat passages were performed for each tested compound. Along with the test, a negative control was included: the MIC value of bacteria cultured in MHB-deionized water after 20 passages.

Structures are written as SMILES. ≈ marks a conversion by molar mass, not a printed value. Non-standard residues stand in square brackets, D forms with d. Residues, ends and D or L forms follow the SMILES beside them.

Consider `CC[C@@H](C)[C@@H](NC(=O)[C@@H](CCCCN)NC(=O)CNC(=O)[C@@H](C)NC(=O)[C@H](NC(=O)[C@@H](CCCCN)NC(=O)[C@@H](CCCCN)NC(=O)[C@H](NC(=O)[C@@H](CCCNC(=N)N)NC(=O)[C@@H](CCCNC(=N)N)NC(=O)[C@@H](Cc1ccccc1)NC(=O)[C@@H](CC(C)C)NC(=O)[C@H](N)CCCNC(=N)N)C(C)C)C(C)C)C(=O)N[C@H](C)C(=O)N[C@H](CCCCN)C(=O)N[C@H](CCCNC(=N)N)C(=O)N[C@@H](C(=O)N[C@H](Cc1c[nH]c2ccccc12)C(=O)N[C@H](CCCCN)C(N)=O)[C@H](C)CC` [D-AP19] (H-[dR][dL][dF][dR][dR][dV][dK][dK][dV][dA]G[dK][dI][dA][dK][dR][dI][dW][dK]-NH2), for which the “MIC after 20 passages” value stood at 7.81 µg/mL (≈ 3.32 µM).

The record behind these values is paper PMC9508196 (Scientific Reports, 2022).
